Laboratory results: patent publication US20240101570A1 (AMGEN INC., priority 2020, published 2024)

Columns and labels:
[1] = tested on: HCT116 WT cells; experiment: HCT116 WT cell proliferation / viability (CellTiter-Glo, 6 days); type: cell-based; conditions: Homo sapiens, HCT-116, 144 h, HCT116 WT cells, 6 days, CellTiter-Glo; read-out: HCT-116 WT IC50
Method in brief: (§1)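 Viability read by CellTiter-Glo after 6-day compound exposure of MTAP-null and wild-type HCT116 cells grown in RPMI 1640 with 10% FBS. Dosing used 1:3 steps from 1 or 10 μM (8-9 points) or 1:2 steps from 10 or 50 μM (22 points); IC50 taken where fitted curve crosses 50% of control.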

[2] = tested on: HCT116 MTAP null cells; experiment: HCT116 MTAP null cell proliferation / viability (CellTiter-Glo, 6 days); type: cell-based; conditions: for IC50: HCT116-MTAP null, 144 h, HCT116 MTAP null cells, 6 days, CellTiter-Glo, read-out: HCT-116 MTAP null IC50; for potency of enantiomer relative to the other enantiomer, measured by IC50 in HCT116 MTAP null cell viability assay: comparison of the two SFC-separated enantiomers
Method in brief: as §1

Row | SMILES | IC50 [1] | IC50 [2] | potency of enantiomer relative to the other enantiomer, measured by IC50 in HCT116 MTAP null cell viability assay [2]
1 | Cc1cc2nc(N)c3cnn(C)c3c2cc1C(=O)N(C)[C@H](C)c1ccc(F)cn1 (single isomer, unassigned) [Example 592] | 2410 nM | 25 nM | –
2 | C[C@@H](c1ccc(F)cn1)N(C)C(=O)c1cc2c(cc1Cl)nc(N)c1cnn(C)c12 (single isomer, unassigned) [Example 594] | 29100 nM | 638 nM | –
3 | C[C@H](c1ncc(C(F)(F)F)cc1F)N(C)C(=O)c1cc2c3c(c(N)nc2cc1F)COC3 (single isomer, unassigned) [Example 595] | 676 nM | 10 nM | –
4 | CCN(Cc1ccc(C(F)(F)F)cn1)C(=O)c1ccc2nc(N)c3c(c2c1)CO[C@H]3CF (single isomer, unassigned) [Example 596] | 37300 nM | 888 nM | –
5 | C[C@H]1OCc2c1c(N)nc1cnc(C(=O)N(C)Cc3ccc(Br)cn3)cc21 (single isomer, unassigned) [Example 597] | 15200 nM | 200 nM | –
6 | C[C@H](c1ccc(C(F)(F)F)cc1)N(C)C(=O)c1cc2c(cn1)nc(N)c1cnn(C)c12 (single isomer, unassigned) [Example 598] | 415 nM | 8 nM | –
7 | C[C@@H](c1ccc(C(F)(F)F)cc1)N(C)C(=O)c1cc2c(cn1)nc(N)c1cnn(C)c12 (single isomer, unassigned) [Example 599] | 27200 nM | 536 nM | –
8 | C[C@H](c1ccc(C(F)(F)F)cn1)N(C)C(=O)c1ccc2nc(N)c3cnn(C)c3c2c1 (single isomer, unassigned) [Example 600] | 663 nM | 18 nM | –
9 | C[C@@H](c1ccc(C(F)(F)F)cn1)N(C)C(=O)c1ccc2nc(N)c3cnn(C)c3c2c1 (single isomer, unassigned) [Example 601] | 21200 nM | 997 nM | –
10 | C[C@H](c1ccc(C(F)(F)F)cn1)N(C)C(=O)c1cc2c(cc1F)nc(N)c1cnn(C)c12 (single isomer, unassigned) [Example 602] | 209 nM | 6 nM | –
11 | C[C@@H](c1ccc(C(F)(F)F)cn1)N(C)C(=O)c1cc2c(cc1F)nc(N)c1cnn(C)c12 (single isomer, unassigned) [Example 603] | 11800 nM | 276 nM | –
12 | C[C@H](c1ccc(F)cn1)N(C)C(=O)c1ccc2nc(N)c3cnn(C)c3c2c1 (single isomer, unassigned) [Example 604] | 24600 nM | 238 nM | –
13 | C[C@H](c1ccc(C(F)(F)F)nn1)N(C)C(=O)c1cc2c(cc1F)nc(N)c1cnn(C)c12 (single isomer, unassigned) [Example 605] | 793 nM | 14 nM | –
14 | COc1ccc(CN(C(=O)c2ccc3nc(N)c4c(c3c2)CCC4)[C@H](C)c2ncccn2)nn1 (single isomer, unassigned) [Example 646] | 263 nM | 19 nM | more potent
15 | COc1ccc(CN(C(=O)c2ccc3nc(N)c4c(c3c2)CCC4)[C@@H](C)c2ncccn2)nn1 (single isomer, unassigned) [Example 647] | 4200 nM | 673 nM | less potent
16 | C[C@@H](c1ncccn1)N(Cc1ccc(C(F)(F)F)nn1)C(=O)c1ccc2nc(N)c3c(c2c1)CCC3 (single isomer, unassigned) [Example 648] | 2500 nM | 279 nM | –
17 | C[C@H](c1ncccn1)N(Cc1ccc(C(F)(F)F)nn1)C(=O)c1ccc2nc(N)c3c(c2c1)CCC3 (single isomer, unassigned) [Example 649] | 181 nM | 14 nM | –
18 | COC[C@H](C1CC1)N(Cc1ccc(Br)nn1)C(=O)c1ccc2nc(N)c3sccc3c2c1 (single isomer, unassigned) [Example 650] | 811 nM | 53 nM | –
19 | COC[C@H](C1CC1)N(Cc1ccc(Br)nn1)C(=O)c1cnc2nc(N)c3c(c2c1)COC3 (single isomer, unassigned) [Example 651] | 3520 nM | 234 nM | –
20 | C[C@H](CF)N(Cc1ccc(C#N)cn1)C(=O)c1cc2c3c(c(N)nc2cn1)COC3 (single isomer, unassigned) [Example 820] | > 10000 nM | 7070 nM | –
21 | CCN(C(=O)c1ccc2nc(N)c3c(c2c1)COC3)[C@@H](C)c1ccc(C(F)(F)F)cn1 (single isomer, unassigned) [Example 821] | > 50000 nM | 4190 nM | –
22 | CCN(C(=O)c1ccc2nc(N)c3c(c2c1)COC3)[C@H](C)c1ccc(C(F)(F)F)cn1 (single isomer, unassigned) [Example 822] | 12000 nM | 323 nM | –
23 | CCN(C(=O)c1cc2c3c(c(N)nc2cn1)COC3)[C@H](C)c1ccc(C(F)(F)F)cn1 (single isomer, unassigned) [Example 823] | 16200 nM | 528 nM | –

Row | SMILES | IC50 [1] | IC50 [2] | potency of enantiomer relative to the other enantiomer, measured by IC50 in HCT116 MTAP null cell viability assay [2]
24 | CCN(C(=O)c1cc2c3c(c(N)nc2cn1)COC3)[C@@H](C)c1ccc(C(F)(F)F)cn1 (single isomer, unassigned) [Example 824] | 26300 nM | 2390 nM | –
25 | C[C@H](c1ccc(C(F)(F)F)cn1)N(C(=O)c1cc2c3c(c(N)nc2cn1)COC3)c1cnn(C)c1 (single isomer, unassigned) [Example 825] | 276 nM | 22 nM | –
26 | C[C@@H](c1ccc(C(F)(F)F)cn1)N(C(=O)c1cc2c3c(c(N)nc2cn1)COC3)c1cnn(C)c1 (single isomer, unassigned) [Example 826] | 27100 nM | 6720 nM | –
27 | C[C@@H]1OCc2c1c(N)nc1cnc(C(=O)N(Cc3ccc(C(F)(F)F)cn3)c3cnn(C)c3)cc21 (single isomer, unassigned) [Example 827] | 47200 nM | 1250 nM | –
28 | C[C@H]1OCc2c1c(N)nc1cnc(C(=O)N(Cc3ccc(C(F)(F)F)cn3)c3cnn(C)c3)cc21 (single isomer, unassigned) [Example 828] | 294 nM | 26 nM | –
29 | C[C@@H]1OCc2c1c(N)nc1cnc(C(=O)N(Cc3ccc(C(F)(F)F)nn3)C3CCC3)cc21 (single isomer, unassigned) [Example 829] | > 50000 nM | 7790 nM | –
30 | C[C@H]1OCc2c1c(N)nc1cnc(C(=O)N(Cc3ccc(C(F)(F)F)nn3)C3CCC3)cc21 (single isomer, unassigned) [Example 830] | 2970 nM | 80 nM | –
31 | CC(C)N(C(=O)c1ccc2nc(N)c3c(c2c1)COC3)[C@@H](C)c1ccc(C(F)(F)F)cn1 (single isomer, unassigned) [Example 831] | 31700 nM | 2570 nM | –
32 | CC(C)N(C(=O)c1ccc2nc(N)c3c(c2c1)COC3)[C@H](C)c1ccc(C(F)(F)F)cn1 (single isomer, unassigned) [Example 832] | 12600 nM | 454 nM | –
33 | C[C@@H](c1ncc(F)cn1)N(CCOC(F)(F)F)C(=O)c1cc2c3c(c(N)nc2cc1F)COC3 (single isomer, unassigned) [Example 833] | 27200 nM | 2560 nM | –
34 | C[C@H](c1ncc(F)cn1)N(CCOC(F)(F)F)C(=O)c1cc2c3c(c(N)nc2cc1F)COC3 (single isomer, unassigned) [Example 834] | 19700 nM | 817 nM | –
35 | CCN(C(=O)c1ccc2nc(N)c3c(c2c1)COC3)[C@H](C)c1ccc(C#N)cc1 (single isomer, unassigned) [Example 835] | 3760 nM | 126 nM | –
36 | CCN(C(=O)c1ccc2nc(N)c3c(c2c1)COC3)[C@@H](C)c1ccc(C#N)cc1 (single isomer, unassigned) [Example 836] | 38700 nM | 3640 nM | –
37 | CCN(C(=O)c1ccc2nc(N)c3c(c2c1)COC3)[C@@H](C)c1ccc(C#N)cn1 (single isomer, unassigned) [Example 837] | > 50000 nM | 7080 nM | –
38 | CCN(C(=O)c1ccc2nc(N)c3c(c2c1)COC3)[C@H](C)c1ccc(C#N)cn1 (single isomer, unassigned) [Example 838] | 8590 nM | 161 nM | –
39 | CC(C)N(C(=O)c1ccc2nc(N)c3c(c2c1)CO[C@@H]3C)[C@H](C)c1ccc(C(F)(F)F)cn1 (single isomer, unassigned) [Example 839] | 9520 nM | 213 nM | –
40 | CC(C)N(C(=O)c1ccc2nc(N)c3c(c2c1)CO[C@@H]3C)[C@@H](C)c1ccc(C(F)(F)F)cn1 (single isomer, unassigned) [Example 840] | 23000 nM | 638 nM | –
41 | CC(C)N(C(=O)c1cc2c3c(c(N)nc2cc1F)COC3)[C@@H](C)c1ccc(C(F)(F)F)cn1 (single isomer, unassigned) [Example 841] | 11600 nM | 613 nM | –
42 | CC(C)N(C(=O)c1cc2c3c(c(N)nc2cc1F)COC3)[C@H](C)c1ccc(C(F)(F)F)cn1 (single isomer, unassigned) [Example 842] | 3280 nM | 115 nM | –
43 | CCN(C(=O)c1ccc2nc(N)c3c(c2c1)CO[C@@H]3C)[C@@H](C)c1ccc(C#N)cn1 (single isomer, unassigned) [Example 843] | > 50000 nM | 3360 nM | –
44 | CCN(C(=O)c1ccc2nc(N)c3c(c2c1)CO[C@@H]3C)[C@H](C)c1ccc(C#N)cn1 (single isomer, unassigned) [Example 844] | 6220 nM | 105 nM | –
45 | CC(C)N(C(=O)c1cc2c3c(c(N)nc2cc1Cl)COC3)[C@H](C)c1ccc(C(F)(F)F)cn1 (single isomer, unassigned) [Example 845] | 2240 nM | 105 nM | –
46 | CC(C)N(C(=O)c1cc2c3c(c(N)nc2cc1Cl)COC3)[C@@H](C)c1ccc(C(F)(F)F)cn1 (single isomer, unassigned) [Example 846] | 3940 nM | 212 nM | –
